Measurements as given in patent US20230220206A1, “REJUVENATING AGENTS FOR ASPHALT RECYCLING” (BASF SE, priority 2020, published 2023).

Experiment: TD NMR relaxation time measurements (SE-CPMG, multicomponent fitting)
Assay type: physicochemical
Settings: for 1/<1/T2e>: harmonic average relaxation time of the mobile components
Excerpt: TD NMR, also known as NMR relaxometry, is a known NMR technique and relies on measuring the relaxation times of the nuclear spin system instead of frequency-domain spectra. […] Also, sample preparation is much simpler as there are no concerns about sample homogeneity and no solvents are needed.
Like that, a clear distinction between protons in a solid, amorphous and liquid component can be made with good accuracy.
Bitumen 20/30 was rejuvenated with some of the here claimed rejuvenating agents according to example 1. The pure bitumen 20/30 as well as the rejuvenated bitumen 20/30 samples were then analyzed by TD NMR. To do so, all samples were heated up to 80° C. to allow filling of the samples into NMR tubes. After that, TD NMR measurements at 30° C., 80° C. and 140° C. were conducted using the SE-CMPG sequence. This sequence consists of a solid echo combined with a so-called CPMG (Carr-Purcell-Meiboom-Gill) train of subsequent spin echoes with alternating phase and is capable of recording the decay of coherence in the transverse nuclear magnetization over about 5 orders of magnitude in time. Depending on the measurement temperature, the experimental data were then fitted with semi-empirically selected multicomponent models involving several Gaussian and exponential components:
S(t)=[pg1 exp(−(t/T2g1)^2)+pg2 exp(−(t/T2g2)^2)]+pe1 exp(−t/T2e1)[pe2 exp(−t/T2e2)+pe3 exp(−t/T2e3)]
In order to assess the effect of temperature on the molecular mobility of the bitumen, experiments were conducted at temperatures of 30° C., 80° C. and 140° C., and the following models turned out to provide adequate fits of the respective normalized signal decay curves: • two Gaussians and one exponential at 30° C., • two Gaussians and two exponentials at 80° C., • three exponentials at 140° C.
From the fitting, different values can be obtained: • The p values (pg1, pg2, pe1, pe2 and pe3), indicating the signal fraction of the individual component scaled in the range from 0 to 1 • The T2 values (T2g1, T2g2, T2e1, T2e2 and T2e3), indicating the relaxation times that correspond to each of the individual components. The longer the relaxation time, the higher the molecular mobility of the respective component • In addition to the values T2e1, T2e2 and T2e3, we also calculated the average relaxation time of the mobile components, 1/<1/T2e>, for the temperatures at which more than one mobile component exist (80 and 140° C.). 1/<1/T2e> Is calculated as the harmonic average of the relaxation times involved:
[formula] • The type of the component, those being: • g1: the rigid component • g2: the partially mobile component • e1, e2 and e3: mobile components with increasingly high local molecular mobilities
It is believed that the rigid component g1 is directly correlated with the amount of the asphaltene aggregates. The mobile component(s) on the other hand can be attributed to the maltene phase.

[1] = 30° C., bitumen 20/30 + additive
[2] = 80° C., bitumen 20/30 + additive
[3] = 140° C., bitumen 20/30 + additive

Polypropylenglycol bis glycidylether
T2e1 [1]: 0.20 ms | T2g1 [1]: 0.016 ms | T2g2 [1]: 0.044 ms | pe1 (30° C., mobile component, bitumen 20/30 + additive): 0.41 | pg2 (30° C., partially mobile component, bitumen 20/30 + additive): 0.18 | pg1 (30° C., signal fraction of rigid component, bitumen 20/30 + additive): 0.40 | T2e1 [2]: 0.47 ms | T2e2 [2]: 2.42 ms | T2g1 [2]: 0.017 ms | T2g2 [2]: 0.053 ms | pe1 [2]: 0.46 | pe2 [2]: 0.35 | pg1 [2]: 0.10 | pg2 [2]: 0.078 | 1/<1/T2e> (80° C.): 0.72 ms | T2e1 [3]: 0.20 ms | T2e2 [3]: 4.45 ms | T2e3 [3]: 24.51 ms | pe1 [3]: 0.18 | pe2 [3]: 0.47 | pe3 [3]: 0.34 | 1/<1/T2e> (140° C.): 0.94 ms
